This is an account of results in US11071730B2, “Substituted 6-azabenzimidazole compounds” (Gilead Sciences, Inc., priority 2018, dated 2021).

Molecules are shown by their SMILES.

For one assay, the target named is human HPK1 (MAP4K1) (Homo sapiens (Human), UniProt Q92918). The assay is described as follows: HPK1 IC50 Assay (TR-FRET biochemical kinase assay, STK S1 peptide substrate). The conditions noted are these: recombinant human HPK1 kinase domain 0.15 nM, 10 μM ATP, 1 μM STK S1 peptide; geometric mean. Summed up: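 Pre-activated recombinant kinase domain (insect cells; 0.15 nM) pre-incubated with compounds for 15 min, then 10 μM ATP and 1 μM STK S1 peptide added for 3 h at 25 °C in BES pH 7.0. Phosphorylation read by HTRF (665/620 nm). IC50 from four-parameter fits normalized to staurosporine/DMSO controls, geometric mean of repeats.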
Sequence of human HPK1 (MAP4K1) (Q92918 17-274): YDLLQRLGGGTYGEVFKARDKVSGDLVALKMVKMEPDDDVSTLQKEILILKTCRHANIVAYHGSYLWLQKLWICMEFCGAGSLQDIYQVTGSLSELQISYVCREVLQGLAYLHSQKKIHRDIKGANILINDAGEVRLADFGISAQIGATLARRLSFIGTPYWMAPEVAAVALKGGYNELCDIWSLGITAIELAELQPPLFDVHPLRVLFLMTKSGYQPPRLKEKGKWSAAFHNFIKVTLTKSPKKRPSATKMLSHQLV
A general note: Time-resolved FRET reads energy transfer from a long-lived donor to a nearby acceptor.
A word on the IC50: it is the concentration that gives 50% inhibition. Consider `CO[C@H]1C[C@@H](C(=O)N2CCC3(CC2)C(=O)N([C@H]2C[C@@H](N4CCC(C)(C)C4)C2)c2cc(-c4cc5ncn(C(C)C)c5c(Nc5ccncc5F)n4)ccc23)C1` [Example 156], for which the IC50 amounted to 0.2 nM.

In the case of `CC(=O)N1CCC2(CC1)C(=O)N([C@H]1C[C@@H](N3CCCCC3)C1)c1cc(-c3cc4ncn(C(C)C)c4c(Nc4cc(N(C)C)ncc4F)n3)ccc12` [Example 99], the half-inhibitory concentration (IC50) came to 1.6 nM.

With `CC(C)n1cnc2cc(-c3ccc4c(c3)N([C@H]3C[C@@H](N5CC(C)(C)C5)C3)C(=O)C43CCN(C4COC4)CC3)nc(Nc3ccncc3F)c21` [Example 176], the IC50 was 0.8 nM.

As for `COC1(C(=O)N2CCC3(CC2)C(=O)N([C@H]2C[C@@H](N4CCCCC4)C2)c2cc(-c4cc5ncn(C(C)C)c5c(Nc5ccncc5F)n4)ccc23)CCC1` [Example 107], the half-maximal inhibitory concentration (IC50) is 0.3 nM.

Take `CC(C)n1cnc2cc(-c3ccc4c(c3)N([C@H]3C[C@@H](N5CCCCC5)C3)C(=O)C43CCN(C(=O)C(C)(C)CO)CC3)nc(Nc3ccnc(F)c3F)c21` [Example 103]: the half-inhibitory concentration (IC50) worked out at 0.2 nM.

The same assay, now with this note: recombinant human HPK1 kinase domain 0.15 nM, 10 μM ATP, 1 μM STK S1 peptide; geometric mean of multiple experiments.
Regarding `CC(C)n1cnc2cc(-c3ccc4c(c3)N([C@H]3C[C@@H](N5C[C@@H](C)[C@@H](C)C5)C3)C(=O)C43CCN(C(=O)C(C)(C)CO)CC3)nc(Nc3ccncc3F)c21` [Example 10], the IC50 worked out at 0.05 nM.

With `CC(C)n1cnc2cc(-c3ccc4c(c3)N([C@H]3C[C@@H](N5CCC(C)(C)C5)C3)C(=O)C43CCN(C(=O)C4CCO4)CC3)nc(Nc3ccncc3F)c21` (single isomer, unassigned) [Example 78A, 1-((1s,3s)-3-(3,3-dimethylpyrrolidin-1-yl)cyclobutyl)-6-(4-((3-fluoropyridin-4-yl)amino)-3-isopropyl-3H-imidazo[4,5-c]pyridin-6-yl)-1′-(oxetane-2-carbonyl)spiro[indoline-3,4′-piperidin]-2-one], the IC50 amounted to 0.3 nM.

Regarding `CC(C)n1cnc2cc(-c3ccc4c(c3)N([C@H]3C[C@@H](N5CCCC6(CC6)C5)C3)C(=O)C43CCN(C(=O)[C@@H](C)O)CC3)nc(Nc3ccncc3F)c21` [Example 36], the IC50 is 0.3 nM.

For the compound `CC(C)n1cnc2cc(-c3ccc4c(c3)N([C@H]3C[C@@H](N5CCCCC5)C3)C(=O)C4(C)C)nc(Nc3c(F)cncc3F)c21` [Example 65], the IC50 is 0.7 nM.

With `CC(C)n1cnc2cc(-c3ccc4c(c3)N([C@H]3C[C@@H](N5CCCCC5)C3)C(=O)[C@]4(C)O)nc(Nc3ccncc3F)c21` [Example 55B, 6-(4-((3-fluoropyridin-4-yl)amino)-3-isopropyl-3H-imidazo[4,5-c]pyridin-6-yl)-3-hydroxy-3-methyl-1-((1s,3s)-3-(piperidin-1-yl)cyclobutyl)indolin-2-one], the IC50 was found to be 2.2 nM.

For `CC(C)n1cnc2cc(-c3ccc4c(c3)N([C@H]3C[C@@H](N5CCCCC5)C3)C(=O)C43CCN(C(=O)C4(C)CC4)CC3)nc(Nc3ccncc3F)c21` [Example 27], the IC50 was determined as 0.5 nM.

Consider `Cc1cc(Nc2nc(-c3ccc4c(c3)N([C@H]3C[C@@H](NCC(C)(C)O)C3)C(=O)C4(C)C)cc3ncn(C(C)C)c23)c(F)cn1` [Example 53], for which the IC50 was found to be 2.1 nM.
